# Counter-ions that a name gives are not always drawn. Like-named read-outs stand apart in the source and are kept apart here.
# What was measured:
# [1] = test system: subdomain IIa of the internal ribosome entry site (IRES) RNA of HCV; parameters: method as in earlier work; conditions: ref 6 (Table S1 list: Martín-Villamil et al. 2022); cited from earlier work
# [2] = test system: SARS-CoV-2 USA-WA1/2020; assay: microbe, parasite or virus in culture; format: cell-based; conditions: read-out: SARS-CoV-2 EC50
# [3] = test system: SARS-CoV-2 USA-WA1/2020; assay: microbe, parasite or virus in culture; format: cell-based; conditions: read-out: SARS-CoV-2 EC50; remark: listed apart in the source
# [4] = in vitro; conditions: African green monkey, uninfected Vero E6 cells
# [5] = test system: HIV-1; conditions: cited from earlier work
# [6] = in vitro; conditions: human, uninfected 293T-ACE2 cells
# [7] = test system: subdomain IIB of the rev recognition element (RRE) of the HIV-1 genomic RNA; conditions: cited from earlier work
# [8] = test system: SCoV2 USA-WA1/2020; format: cell-based; conditions: 293T-ACE2, MOI 2, 8-h single cycle
# [9] = test system: SCoV2 RNA elements; assay: ligand-based 1H NMR (1D, CPMG, wLOGSY), six RNA elements compared; format: binding, SARS-CoV-2; conditions: CSP, LB, CPMG and wLOGSY perturbations; 300 µM compound
# Source text: We first used ligand-based ^1H NMR experiments to analyze the interaction of the selected compounds with each of the six RNA elements specified above, including one-dimensional, Carr–Purcell–Meiboom–Gill (CPMG) and waterLOGSY (wLOGSY) experiments. These assays detect changes in the ^1H signals of the ligand upon RNA association (Figure 4A), and have been successfully used to evaluate small-molecule binding to RNA motifs, including elements of the SCoV2 genome.
# Each ligand (at a concentration of 300 μM) was mixed with a smaller quantity of RNA in an aqueous solution containing 25 mM potassium phosphate (pH 6.2), 150 mM KCl, 3 mM MgCl2, and 10% D2O. RNA–ligand molar ratios of 1:50 and 1:100 were explored (with 6 and 3 μM RNA, respectively). […] The water signal was suppressed from one-dimensional experiments with a watergate sequence. The CPMG experiments were acquired with 100, 200, 300, and 400 ms relaxation delays before acquisition, and water suppression was achieved by presaturation. wLOGSY experiments employed a selective Gaussian 180° pulse at the water frequency and an NOE mixing time of 1.5 s and suppressed the water signal by excitation sculpting. All spectra were acquired in the absence and presence of RNA.
# All ligand signals were individually analyzed. For clomiphene citrate, the signals corresponding to cis and trans forms were identified by comparing the spectrum of clomiphene citrate with those of the individual stereoisomers. In CPMG experiments, the binding of the compounds to the different RNA sequences was quantified as 100 minus the percentage of ligand signal area in the +RNA CPMG spectrum relative to the corresponding signal area in the -RNA CPMG spectrum. In wLOGSY experiments, binding was quantified with the LOGSY factor, or % of ligand signal in the difference spectrum between the +RNA and –RNA wLOGSY spectra, relative to the corresponding signal in the one-dimensional -RNA reference spectrum. In one-dimensional experiments, line broadening (LB) was quantified as explained for CPMG spectra.
# [10] = test system: Vero E6 cells; conditions: read-out: SARS-CoV-2 CC50, uninfected, MTT
# [11] = test system: SARS-CoV-2; format: cell-based; conditions: 48 h post-infection
# [12] = test system: 3_S2m RNA; assay: ligand-based 1H NMR (1D, CPMG, wLOGSY); format: binding, SARS-CoV-2
# [13] = test system: 3_SL1+2 RNA; format: binding
# [14] = test system: 5_SL2+3 RNA; assay: ligand-based 1H NMR (1D, CPMG, wLOGSY); format: binding, SARS-CoV-2
# [15] = test system: ORF7b RNA; assay: ligand-based 1H NMR (1D, CPMG, wLOGSY); format: binding, SARS-CoV-2
# [16] = test system: ATTL RNA; assay: ligand-based 1H NMR (1D, CPMG, wLOGSY); format: binding, SARS-CoV-2
# [17] = test system: PRF RNA; assay: ligand-based 1H NMR (1D, CPMG, wLOGSY); format: binding, SARS-CoV-2
# [18] = test system: 293T-ACE2 cells; conditions: read-out: SARS-CoV-2 CC50, uninfected, MTT
# [19] = Severe acute respiratory syndrome coronavirus 2, Vero C1008, 48 h, Vero E6 cells, MOI 0.025, two days
# [20] = Severe acute respiratory syndrome coronavirus 2, 48 h, 293T-ACE2 cells, MOI 0.25, two days
# [21] = ref 2 (Table S1 list: Prado et al. 2018)
# [22] = Severe acute respiratory syndrome coronavirus 2, Vero C1008, 48 h
# [23] = Severe acute respiratory syndrome coronavirus 2, 293T/ACE2, 48 h
# [24] = Vero E6 cells, MOI 0.025, two days
# [25] = ref 3 (Table S1 list: Simba-Lahuasi et al., Unpublished results)
# [26] = ref 1 (Table S1 list: Prado et al. 2016)
# [27] = average of aliphatic protons, RNA:ligand 1:100 (clomiphene) or 1:50 (trim, qz2)
# [28] = average of aromatic protons, RNA:ligand 1:100 (clomiphene) or 1:50 (trim, qz2)
# [29] = clomiphene citrate peak A, RNA:ligand 1:100
# [30] = clomiphene citrate peak B, RNA:ligand 1:100
# [31] = clomiphene citrate peak C, RNA:ligand 1:100
# [32] = clomiphene citrate peak D, RNA:ligand 1:100
# [33] = ref 4 (Table S1 list: Medina-Trillo et al. 2020)
molecule,measurement,setting,value
CCN(CC)CCCC(C)Nc1ccc2ccccc2n1 (centres unmarked) [qn1],Previous target RNA binding,[1],yes
same,EC50,[2]; [19],9.4 µM
same,EC50,[3]; [20],0.32 µM
same,CC50 at 2 days,[4],> 20 µM
Fc1nc(N2CCNCC2)c(F)c(Sc2ccc(Cl)cc2)c1F [2a],Previous target virus activity,[5]; [21],yes
same,CC50 at 2 days,[6],5.32 µM
same,Previous target RNA binding,[7]; [21],yes
same,EC50,[2]; [22],6.24 µM
same,EC50,[3]; [23],0.63 µM
same,CC50 at 2 days,[4],> 20 µM
CCN(CC)CCNc1cc(-c2cccs2)nc2ccccc12 [1d],Previous target virus activity,[5]; [21],yes
same,CC50 at 2 days,[6],7.5 µM
same,Previous target RNA binding,[7]; [21],yes
same,EC50,[2]; [19],6.64 µM
same,EC50,[2]; [24],6.24 µM
"CCC(CC)COC(=O)[C@H](C)N[P@](=O)(OC[C@H]1O[C@@](C#N)(c2ccc3c(N)ncnn23)[C@H](O)[C@@H]1O)Oc1ccccc1 [Remdesivir, reference compound]",CC50 at 2 days,[6],> 2 µM
same,inhibition when added at +4 h,[8],decreased
same,EC50,[2]; [22],0.428 µM
same,EC50,[3]; [23],0.0104 µM
same,CC50 at 2 days,[4],> 20 µM
CC1CN(C(c2ccccc2)(c2ccccc2)c2ccccc2)CCN1 (centres unmarked) [Trityl-piperazine],Previous target virus activity,[5]; [25],yes
same,CC50 at 2 days,[6],> 3.67 µM
same,Previous target RNA binding,[7]; [25],yes
same,EC50,[2]; [19],0.644 µM
same,EC50,[3]; [20],0.27 µM
same,CC50 at 2 days,[4],2.22 µM
Cis-clomiphene,Previous target virus activity,[5]; ref Unpublished,yes
same,RNA binding preference,[9],bound RNA with stronger affinity than the trans form
same,Previous target RNA binding,[7]; ref Unpublished,yes
CC(CNc1nc2c(cnn2-c2ccccc2)c(=O)[nH]1)Cn1ccnc1 (centres unmarked) [gn1],Previous target RNA binding,[1],yes
same,EC50,[2]; [19],> 20 µM
Homochlorcyclizine [reference compound],Previous target RNA binding,[7]; [26],yes
same,EC50,[2]; [24],3.59 µM
same,CC50,[10],> 20 µM
"CCN(CC)CCOc1ccc(C(=C(Cl)c2ccccc2)c2ccccc2)cc1 [Clomiphene citrate, reference compound]",viral titers in supernatants (TCID50),[11],below the limit of detection
same,RNA binding preference,[9],bound significantly to all of the RNA sequences examined
same,Previous target RNA binding,[7]; [26],yes
same,nucleocapsid protein expression,[8]; added at +2 h relative to infection,strongly inhibited
same,CPMG variation,[12]; [27],39.5%
same,LB,[12]; [27],44.9%
same,CPMG variation,[12]; [28],40.4%
same,LB,[12]; [28],37.4%
same,CPMG variation,[12]; [29],37.1%
same,LB,[12]; [29],57.5%
same,CPMG variation,[12]; [30],38.8%
same,LB,[12]; [30],51.5%
same,CPMG variation,[12]; [31],40.8%
same,LB,[12]; [31],35.3%
same,CPMG variation,[12]; [32],40.4%
same,LB,[12]; [32],37.4%
same,CPMG variation,[13]; [27],94.5%
same,LB,[13]; [27],70.7%
same,LB,[13]; [28],61.4%
same,CPMG variation,[13]; [29],99.3%
same,LB,[13]; [29],59.6%
same,CPMG variation,[13]; [30],97.0%
same,LB,[13]; [30],89.5%
same,CPMG variation,[13]; [31],91.5%
same,LB,[13]; [31],66.9%
same,CPMG variation,[13]; [32],99.1%
same,LB,[13]; [32],61.4%
same,CPMG variation,[14]; [27],23.3%
same,LB,[14]; [27],0.62%
same,LB,[14]; [28],-1.34%
same,CPMG variation,[14]; [29],36.0%
same,LB,[14]; [29],23.4%
same,CPMG variation,[14]; [30],26.7%
same,LB,[14]; [30],13.7%
same,CPMG variation,[14]; [31],14.9%
same,LB,[14]; [31],-17.3%
same,CPMG variation,[14]; [32],29.0%
same,LB,[14]; [32],-1.34%
same,LB,[15]; [27],68.0%
same,LB,[15]; [28],67.6%
same,CPMG variation,[15]; [29],96.3%
same,LB,[15]; [29],61.5%
same,CPMG variation,[15]; [30],96.5%
same,LB,[15]; [30],67.2%
same,CPMG variation,[15]; [31],92.9%
same,LB,[15]; [31],71.7%
same,CPMG variation,[15]; [32],97.5%
same,LB,[15]; [32],67.6%
same,CPMG variation,[16]; [27],38.5%
same,LB,[16]; [27],35.1%
same,LB,[16]; [28],15.9%
same,CPMG variation,[16]; [29],34.3%
same,LB,[16]; [29],25.5%
same,CPMG variation,[16]; [30],38.3%
same,LB,[16]; [30],67.0%
same,CPMG variation,[16]; [31],40.8%
same,LB,[16]; [31],23.9%
same,CPMG variation,[16]; [32],41.4%
same,LB,[16]; [32],15.9%
same,LB,[17]; [27],68.7%
same,LB,[17]; [28],81.7%
same,CPMG variation,[17]; [29],96.5%
same,LB,[17]; [29],73.2%
same,CPMG variation,[17]; [30],93.9%
same,LB,[17]; [30],82.5%
same,CPMG variation,[17]; [31],77.1%
same,LB,[17]; [31],59.6%
same,CPMG variation,[17]; [32],99.0%
same,LB,[17]; [32],81.7%
N=c1c(S(=O)(=O)c2ccc(Cl)cc2)cc2c(=O)n3ccccc3nc2n1C1CCCCC1 [2b],Previous target virus activity,[5]; [21],yes
same,Previous target virus activity,[5]; [33],no
same,Previous target RNA binding,[7]; [21],yes
same,Previous target RNA binding,[7]; [33],yes
same,EC50,"[3]; 293T-ACE2 cells, MOI 0.25, two days",> 10 µM
same,CC50,[18],> 20 µM
same,CC50,[10],> 20 µM

# Reference: PMC9784969, “SARS-CoV-2 Inhibitors Identified by Phenotypic Analysis of a Collection of Viral RNA-Binding Molecules” (Pharmaceuticals, 2022)
